Experiments:
E. coli MTAN = E. coli MTAN (Escherichia coli, UniProt P0AF12); assay: Inhibition of E. coli MTAN, xanthine oxidase-coupled enzyme assay; assay type: biochemical; conditions: Km of MTA over Ki of the inhibitor
human MTAP = target: T1, human MTAP (Homo sapiens, UniProt Q13126); assay type: biochemical; conditions: for Km/Ki ratio for human MTAP: Km of MTA over Ki of the inhibitor
T1 sequence (Q13126 1-283): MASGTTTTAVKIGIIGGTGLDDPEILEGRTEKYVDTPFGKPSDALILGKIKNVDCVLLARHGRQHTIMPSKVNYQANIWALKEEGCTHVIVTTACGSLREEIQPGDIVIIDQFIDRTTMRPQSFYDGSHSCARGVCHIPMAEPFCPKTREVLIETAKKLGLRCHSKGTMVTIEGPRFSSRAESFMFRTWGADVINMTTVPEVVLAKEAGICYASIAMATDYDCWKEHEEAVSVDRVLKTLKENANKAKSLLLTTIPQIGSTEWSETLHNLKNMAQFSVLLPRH

Sequence of E. coli MTAN (P0AF12 whole entry): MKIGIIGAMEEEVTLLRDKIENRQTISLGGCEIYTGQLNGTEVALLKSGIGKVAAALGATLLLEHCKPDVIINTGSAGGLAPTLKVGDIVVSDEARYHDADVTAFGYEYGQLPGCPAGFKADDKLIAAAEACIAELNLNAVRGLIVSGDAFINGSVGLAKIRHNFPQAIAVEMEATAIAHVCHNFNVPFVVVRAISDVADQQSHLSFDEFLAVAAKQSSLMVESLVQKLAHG

| Structure (SMILES) | Km/Ki ratio for E. coli MTAN (E. coli MTAN) | Km/Ki ratio for human MTAP (human MTAP) | Better competitor for the catalytic site of human MTAP than for E. coli MTAN, factor (human MTAP; from the Km/Ki ratios) |
| --- | --- | --- | --- |
| C=CC[C@H]1CN(Cc2c[nH]c3c(N)ncnc23)C[C@@H]1O (racemic) [(±)-41, (±)-trans-4-Allyl-1-[(9-deaza-adenin-9-yl)methyl]-3-hydroxypyrrolidine] | 1228 | 1759 |  |
| CC[C@H]1CN(Cc2c[nH]c3c(N)ncnc23)C[C@@H]1O (racemic) [(±)-28, (±)-trans-1-[(9-Deaza-adenin-9-yl)methyl]-4-ethyl-3-hydroxypyrrolidine] | 512 |  | 6 |
| Nc1ncnc2c(CN3C[C@H](CCCSCc4ccccc4)[C@@H](O)C3)c[nH]c12 (racemic) [(±)-57, (±)-trans-4-[3-(Benzylthio)propyl]-1-[(9-deaza-adenin-9-yl)methyl]-3-hydroxypyrrolidine] | 7963 | 74 |  |
| C=C[C@H]1CN(Cc2c[nH]c3c(N)ncnc23)C[C@@H]1O (racemic) [(±)-40, (±)-trans-1-[(9-Deaza-adenin-9-yl)methyl]-3-hydroxy-4-vinylpyrrolidine] | 662 | 1649 |  |

Reference: paper PMC3742014 (Journal of medicinal chemistry, 2010)
